In this assay the test system is dietary obese female Wistar rats. Description: Chronic influence on food and water intake and body weight gain in vivo (carcass composition, plasma parameters). Further details: species or system rat. The settings on record: 28 days, mean ± SEM; for Plasma glucose / Plasma insulin / Plasma leptin: plasma day 29. As to the method: 4. Chronic Influence on Food and Water Intake and Body Weight Gain in vivo
Female Wistar rats (weight range 250-300 g; Charles River, Margate, Kent) were housed in pairs in polypropylene cages with solid floors and sawdust bedding at a temperature of 21±4° C. and 55±20% humidity. Animals were maintained on a reverse phase light-dark cycle (lights off for 8 hours from 10.00-18.00 h) during which time the room was illuminated by red light. Animals had free access to powdered high fat diet (VRF1 plus 20% lard), ground chocolate, ground peanuts and tap water at all times. The three different diets were contained in separate glass feeding jars with aluminium lids (Solmedia Laboratory Suppliers, Romford, Essex). […] Animals were housed in pairs for twelve weeks. At least two weeks before the start of the baseline readings, animals were housed individually in polypropylene cages with wire grid floors to enable the food intake of each rat to be recorded. Polypropylene trays with cage pads were placed beneath each cage to detect any food spillage.
At the start of the study, animals were weighed (to the nearest 0.1 g using an electronic top-pan balance) and allocated into 6 weight-matched treatment groups, each containing 10 animals. Following a 7 day baseline run-in period, during which time all animals were dosed orally once a day with vehicle (1% Tylose MH50, 0.1% poloxamer 188), rats were given vehicle or test compound of Formula I for 28 days as described in Table 4 below: […]
The test substance of example 2 was suspended in 1% Tylose MH50, 0.1% poloxamer 188 and administered by oral gavage (2 ml/kg). All dosing occurred at the onset of the 8 hours dark period (spanning the period immediately before and after lights out). The second treatments were given 4 hours after the first. Rats, feeding jars and water bottles were weighed (to the nearest 0.1 g) every day at the time of administration of vehicle or test substance. At each reading, the tray below each cage was examined for spilt food, which was returned to the appropriate jar before weighing. However, spillage of food from the feeding jars was negligible. Variations in body weight and energy levels of the different types of food were accounted for by expressing the food intake results in terms of kJ/kg rat weight. Water intake results were expressed in g/kg.
Animals were killed at the end of the study (by CO2 to minimize any fluid loss) on day 29 and blood samples (5 ml whole blood/animal) were collected by cardiac puncture. Plasma was separated by centrifugation and stored at −75° C. until analysis. Following blood collection carcasses were weighed, frozen and stored at −75° C. for body composition analysis. Body fat, protein, water and ash levels of the carcasses were determined using standard chemical analysis techniques. Only fat, protein, water and ash content were measured as other components (mainly carbohydrate) form less than 2% of total body composition.
Carcasses were individually milled at the temperature of liquid nitrogen, mixed and two representative samples taken. Carcass water was determined by freeze-drying the samples to constant weight. Carcass fat was determined on the freeze-dried samples using a modified Soxhlet extraction protocol (petroleum ether at 40-60° C.) with a Foss Soxtec® HT2 system (Foss UK Ltd, Wheldrake, UK) according to the manufacturers recommended protocol. Carcass protein was determined using a micro-Kjeldahl procedure on the freeze-dried samples using a Foss 2012® digestion block and Foss 2200® distilling unit (Foss UK Ltd). Residual carcass ash was determined by firing the freeze-dried samples at high temperatures using a muffle ashing furnace. Repeat determinations of the chemical analysis parameters were performed as necessary (e.g. if the duplicate samples differed by more than 1%).

[1] abbreviates: 30 mg/kg po twice daily (0 h, 4 h).
The mark [2] stands for this setting: 50 mg/kg po twice daily (0 h, 4 h).

Structures can show the parent of a compound that is named as a salt.

For `NS(=O)(=O)N1CCN(c2ccccc2)CC1` [Example 2, N-Sulfamoyl-N′-phenylpiperazine hydrochloride], under setting [1], the “Carcass ash, mean percent final body weight” value came out at 3.24 ± 0.12%; the “Carcass ash, mean weight per rat” value is 12.13 ± 0.48 g; the “Carcass fat, mean percent final body weight” value is 22.8 ± 1.0 %; the “Carcass fat, mean weight per rat” value stood at 87.9 ± 3.8 g. Also, under setting [1], the “Carcass protein, mean percent final body weight” value is on record as 17.4 ± 0.3*° %; the “Carcass protein, mean weight per rat” value is recorded as 64.8 ± 1.2 g; the “Carcass water, mean percent final body weight” value was 55.2 ± 0.8 %; the “Carcass water, mean weight per rat” value was found to be 205.8 ± 3.1 g. Also, under setting [1], the “Carcass weight, mean per rat” value was determined as 375.4 ± 4.8 g. Besides, under “30 mg/kg po twice daily”, the Plasma glucose is 8.6 ± 0.5 mM, the Plasma insulin came to 1.53 ± 0.33 ng/mL and the Plasma leptin is 68.8 ± 9.4 ng/mL. In addition, under setting [2], the “Carcass ash, mean percent final body weight” value stood at 3.14 ± 0.1%; the “Carcass ash, mean weight per rat” value was 11.38 ± 0.29 g; the “Carcass fat, mean percent final body weight” value came out at 22.3 ± 1.8 %; the “Carcass fat, mean weight per rat” value is listed as 83.6 ± 6.9 g. Moreover, under setting [2], the “Carcass protein, mean percent final body weight” value is recorded as 17.3 ± 0.4*° %; the “Carcass protein, mean weight per rat” value is 62.8 ± 1.3 g; the “Carcass water, mean percent final body weight” value is given as 55.7 ± 1.2 %; the “Carcass water, mean weight per rat” value was 202.2 ± 3.6 g. Moreover, the “Carcass weight, mean per rat” value under setting [2] is reported as 365.6 ± 3.8 g. Under “50 mg/kg po twice daily”, this compound gave a Plasma glucose of 7.9 ± 0.5 mM, a Plasma insulin of 1.40 ± 0.41 ng/mL and a Plasma leptin of 58.8 ± 11.6 ng/mL.

The values are drawn from patent US20050261292A1, “Pharmaceutical composition containing N-sulfamoyl-N'-arylpiperazines for the treatment or inhibition of obesity and related conditions” (Solvay Pharmaceuticals GmbH, priority 2004, published 2005).
